What was measured:
[1] = system: HT29 colorectal cancer cell line; assay: Clonogenic survival of HT29 cell line; format: cell-based; details: HT29, relative to both negative controls (cell line only, and YCFA+ +DMSO)
Protocol: (§1) Cells were trypsinized and 200 cells/well were seeded in 12-well plates. After 48 h cells were treated with the appropriate drugs in absence (YCFA+) or presence of 10% bacterial supernatant and were re-fed every three days. On day 21 after seeding, cells were fixed in ice-cold methanol and stained with Crystal Violet blue. […] were counted and survival fraction was calculated as number of colonies divided by the number of plated cells (plating efficiency) of treated divided by the plating efficiency of control.
(§2) The effects of the following treatments were assessed on the HT29 colorectal cancer cell line (V600E oncogenic mutation in BRAF): (1) MRx0029; (2) Vemurafenib (VEMU) in YFCA+ medium; (3) VEMU and MRx0029; (4) Azacytidine-C (Aza-c) in YCFA+ medium; (5) Aza-c and MRx0029; (6) VEMU, Aza-c and MRx0029.

IL-6, CD11b, TLR4 = assay: Gene expression in the brain of BALB/c mice (qPCR); format: in vivo; details: vs vehicle control
Protocol: BALB/c mice were administered live biotherapeutic and tissues were isolated for analysis of gene expression using qPCR.

[2] = system: Occludin, Villin, TJP1 and TJP2; assay: Tight junction protein gene expression in HT29-mtx cells (qRT-PCR); format: cell-based; details: 2 h incubation
From the text: The ability of MRx0029 to cause any intestinal barrier dysfunction was investigated. HT29-mtx epithelial, mucin-producing cell monolayers were used as an in vitro model to evaluate gut barrier disruption and immune stimulation following treatment with MRx0029.
Total RNA was extracted using the RNeasy mini kit (Qiagen, Manchester, JUK) according to the manufacturer's instructions, and the RNA concentration determined by absorbance at 260/280 nm using a spectrophotometer (nano-Drop ND-1000; Thermo Scientific, Wilmington, Del.). For mRNA expression analysis, cDNA was prepared from total RNA using the High-Capacity cDNA reverse transcription kit (Applied Biosystems, UK) according to the manufacturer's instructions. The reverse transcription reactions were performed in a Thermo cycler (Biometra, Germany) at 25° C. for 10 min, 37° C. for 120 min, and 85° C. for 5 min, hold on at 4° C. Resulting cDNA was amplified in duplicates by the SYBR-Green PCR assay, and products were detected on QuantStudio 6 flex real-time PCR machine (Applied Biosystems, UK) using a standardised profile (initial denaturation of 95° C. for 10 minutes, followed by 40 cycles of 15 seconds of denaturation at 95° C. and 60 seconds of annealing/extension at 60/65° C., depending on the primers. A dissociation stage was added after the 40 cycles to generate a melting curve. Analysis was performed using the Applied Biosystems QuantStudio Real-Time PCR Software v1.2.
RNA was isolated and Quantitative RT-PCR (qRT-PCR) analysis was performed to characterize the changes in gene expression of tight junction proteins during incubation with MRx0029. The administration of MRx0029 enhanced Occludin, Villin, Tight Junction Protein 1 and 2 (respectively TJP1 and TJP2) mRNA expression after 2 h incubation (FIG. 14B).

[3] = system: ERK signalling (phosphorylated ERK1 and 2/total ERK); assay: ERK signalling in HT29 cell line (Western blot); format: cell-based; details: HT29 (V600E oncogenic mutation)
Protocol: (§3) Following 24 h treatment with the appropriate drugs either in presence of 10% bacterial supernatant or absence (YCFA+), protein extracts were obtained by lysing cells in RIPA buffer (R0278; Sigma Aldrich) supplemented with protease inhibitors (cOmplete Protease Inhibitor Cocktail Tablets; Roche, Switzerland) and 1 mM/L sodium orthovanadate, 0.5 mM/L PMSF. Protein quantification was done by the BCA protein assay. Equal amounts of total protein (20 μg/lane) were then separated by SDS-PAGE on 4-15% gradient gel (BioRad) and transferred to polyvinylidene difluoride (PVDF) membranes (Thermo Fisher Scientific, Loughborough). […]
(§4) Proteins of interest were detected with the appropriate HRP-conjugated secondary antibody (1:10,000, Thermo Fisher Scientific, Loughborough), developed with the ECL Western blotting Super Signal PicoPlus substrate (34577; Thermo Fisher Scientific, Loughborough), and visualised in Chemidoc XRS Imager (BioRad).
as §2

451Lu melanoma cell line = assay: Clonogenic survival of 451Lu cell line; format: cell-based; details: relative to both negative controls (cell line only, and YCFA+ +DMSO)
Protocol: as §1
The effects of the following treatments were assessed on the 451Lu melanoma cell line (V600E oncogenic mutation in BRAF): (1) MRx0029; (2) Vemurafenib (VEMU) in YFCA+ medium; (3) VEMU and MRx0029; (4) Azacytidine-C (Aza-c) in YFCA+ medium; (5) Aza-c and MRx0029; (6) VEMU, Aza-c and MRx0029.

[4] = system: ERK signalling (phosphorylated ERK1 and 2/total ERK); assay: ERK signalling in SKMEL31 cell line (Western blot); format: cell-based; details: SKMEL31, relative to the negative control (YFCA+)
Protocol: as §3, §4
The effects of the following treatments were assessed on the SKMEL31 melanoma cell line (heterozygous for BRAF V600E): (1) MRx0029; (2) Vemurafenib (VEMU) in YFCA+ medium; (3) VEMU and MRx0029; (4) Azacytidine-C (Aza-c) in YFCA+ medium; (5) Aza-c and MRx0029; (6) VEMU, Aza-c and MRx0029.

[5] = system: neuron specific enolase (NSE)/enolase 2; assay: Enolase 2 expression in SH-SY5Y cells (qPCR); format: cell-based; details: 10% bacterial supernatants 17 h, vs YCFA+ culture control
Protocol: SH-SY5Y were plated in 6 well plates at a density of 0.5×10^6 cells. After 24 h, cells were treated in differentiation medium (growth medium containing 1% FBS) with 10% bacterial supernatants or YCFA+ for 17 h. Cells were collected, and total RNA was isolated according to the RNeasy mini kit protocol (Qiagen). cDNA was made using the High Capacity cDNA reverse transcription kit (Applied Biosystems). Gene expression was measured by qPCR. GAPDH was used as internal control. Fold change was calculated according to the 2^(−ΔΔct) method. Primer sets used are listed as SEQ ID NOs: 2, 3, 13 and 14.

## Megasphaera massiliensis MRx0029
[1]
  clonogenic survival: decreased clonogenic survival
IL-6, CD11b, TLR4
  TLR4 expression in the amygdala: significantly increase TLR4 expression
[2]
  Occludin mRNA expression: enhanced
  TJP1 mRNA expression: enhanced
  TJP2 mRNA expression: enhanced
  Villin mRNA expression: enhanced
[3]
  ERK signalling: inhibiting ERK signalling
451Lu melanoma cell line
  clonogenic survival: decreased clonogenic survival
[4]
  ERK signalling: reduced ERK signalling
[5]
  Enolase 2 expression: statistically-significant effect of suppressing

— patent US11419902B2, “Compositions comprising bacterial strains” (4D Pharma Research Limited, priority 2018, dated 2022)
